From paper PMC8000495, “A New Anti-Estrogen Discovery Platform Identifies FDA-Approved Imidazole Anti-Fungal Drugs as Bioactive Compounds against ERα Expressing Breast Cancer Cells” (International Journal of Molecular Sciences, 2021) come the findings set out here.

The target in test [1] is T1, estrogen receptor α (ERα) (Homo sapiens, UniProt P03372).
T1 construct: gene ESR1
T1 sequence (P03372 1-595): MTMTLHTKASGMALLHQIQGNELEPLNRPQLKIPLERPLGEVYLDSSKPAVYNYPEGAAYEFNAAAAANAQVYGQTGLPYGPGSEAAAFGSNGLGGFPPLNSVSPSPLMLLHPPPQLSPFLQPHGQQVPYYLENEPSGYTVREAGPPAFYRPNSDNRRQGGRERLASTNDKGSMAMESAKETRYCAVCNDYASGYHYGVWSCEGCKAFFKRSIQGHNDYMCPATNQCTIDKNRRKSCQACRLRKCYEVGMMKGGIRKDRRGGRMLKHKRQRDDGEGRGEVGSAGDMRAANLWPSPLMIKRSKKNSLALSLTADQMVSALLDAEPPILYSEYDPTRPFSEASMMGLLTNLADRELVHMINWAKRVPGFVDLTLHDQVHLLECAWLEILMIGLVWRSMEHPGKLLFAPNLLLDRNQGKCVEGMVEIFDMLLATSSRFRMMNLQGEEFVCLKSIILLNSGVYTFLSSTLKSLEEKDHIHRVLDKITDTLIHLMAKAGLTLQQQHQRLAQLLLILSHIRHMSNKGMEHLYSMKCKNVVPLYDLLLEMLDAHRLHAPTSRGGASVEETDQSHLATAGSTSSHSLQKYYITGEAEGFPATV
The test is described as follows: fluorescence polarization competitive binding, dose-response. A general note: Fluorescence polarisation rises when a labelled molecule tumbles more slowly, as on binding a larger partner.

For test [2], the target named is T1, estrogen receptor α (ERα).

As a reminder, the IC50 is the concentration that inhibits the measured activity by half. Higher therefore signals weaker potency in that assay.

Take `Clc1ccc(C(Cn2ccnc2)OCc2ccc(Sc3ccccc3)cc2)c(Cl)c1` (centres unmarked) [Fenti, fenticonazole]: in test [1], the IC50 is ~14 µM. `Oc1ccc(/C=C/c2cc(O)cc(O)c2)cc1` [resveratrol]: the “fluorescence polarization competitive binding screen, single dose 10^-4 M, Z* >” value in test [2] was “we found well-known receptor ligands (e.g., estriol, resveratrol, genistein)”.
